Like-named read-outs stand apart in the source and are kept apart here.
How the values were obtained:
Experiment in all cases: Kinase selectivity, P33-radiolabeled assay
Format in all cases: biochemical
Conditions in all cases: 10 μM ATP
ALK3/BMPR1A = target: T1, ALK3/BMPR1A (Homo sapiens, UniProt P36894)
T1 construct: purchased Reaction Biology Corp
How it was run: (§1)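 Percent residual kinase activity versus DMSO is reported. Conditions: compound at 10 μM, ATP at 10 μM, n = 2.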

CDK5/p35 = target: T2, CDK5/p35 (Homo sapiens, UniProt Q00535)
T2 construct: purchased Reaction Biology Corp
T2 sequence (Q00535 whole entry): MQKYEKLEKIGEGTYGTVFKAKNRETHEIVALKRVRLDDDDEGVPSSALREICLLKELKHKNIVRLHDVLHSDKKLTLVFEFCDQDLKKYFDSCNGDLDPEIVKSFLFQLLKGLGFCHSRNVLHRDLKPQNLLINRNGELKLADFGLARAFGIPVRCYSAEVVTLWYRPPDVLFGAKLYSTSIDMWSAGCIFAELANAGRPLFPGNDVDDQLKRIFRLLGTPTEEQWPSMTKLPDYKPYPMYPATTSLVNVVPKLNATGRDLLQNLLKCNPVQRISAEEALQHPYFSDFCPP
T2 sequence (Q15078 whole entry partner): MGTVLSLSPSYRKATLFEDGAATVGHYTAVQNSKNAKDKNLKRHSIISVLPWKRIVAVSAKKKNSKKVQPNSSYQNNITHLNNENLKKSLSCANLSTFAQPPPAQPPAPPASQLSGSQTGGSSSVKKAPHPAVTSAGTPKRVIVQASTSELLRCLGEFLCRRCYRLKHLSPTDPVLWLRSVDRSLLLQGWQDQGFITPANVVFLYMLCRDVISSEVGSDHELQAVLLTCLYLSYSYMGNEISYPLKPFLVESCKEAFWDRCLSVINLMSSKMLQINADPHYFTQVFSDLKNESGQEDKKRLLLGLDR
How it was run: as §1

DYRK3 = target: T3, DYRK3 (Homo sapiens, UniProt O43781)
T3 construct: purchased Reaction Biology Corp
T3 sequence (O43781 1-588): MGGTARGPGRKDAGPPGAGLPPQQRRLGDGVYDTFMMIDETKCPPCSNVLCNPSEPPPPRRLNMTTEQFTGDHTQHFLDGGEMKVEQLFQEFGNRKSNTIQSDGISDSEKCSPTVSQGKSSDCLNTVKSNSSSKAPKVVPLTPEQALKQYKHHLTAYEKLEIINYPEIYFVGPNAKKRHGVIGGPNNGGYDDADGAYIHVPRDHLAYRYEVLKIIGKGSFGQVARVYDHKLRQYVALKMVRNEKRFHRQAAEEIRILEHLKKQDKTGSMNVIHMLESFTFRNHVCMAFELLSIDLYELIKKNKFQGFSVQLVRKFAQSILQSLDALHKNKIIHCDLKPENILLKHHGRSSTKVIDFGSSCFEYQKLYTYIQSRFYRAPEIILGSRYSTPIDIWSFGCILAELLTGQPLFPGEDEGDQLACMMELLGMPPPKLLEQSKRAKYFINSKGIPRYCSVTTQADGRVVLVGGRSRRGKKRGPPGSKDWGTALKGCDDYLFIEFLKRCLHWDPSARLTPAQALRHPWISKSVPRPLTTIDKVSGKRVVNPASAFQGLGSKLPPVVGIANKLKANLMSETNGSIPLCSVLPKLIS
How it was run: as §1

HIPK1 = target: T4, HIPK1 (Homo sapiens, UniProt Q86Z02)
T4 construct: purchased Reaction Biology Corp
How it was run: as §1

MEKK2 = target: T5, MEKK2 (Homo sapiens, UniProt Q9Y2U5)
T5 construct: purchased Reaction Biology Corp
T5 sequence (Q9Y2U5 1-619): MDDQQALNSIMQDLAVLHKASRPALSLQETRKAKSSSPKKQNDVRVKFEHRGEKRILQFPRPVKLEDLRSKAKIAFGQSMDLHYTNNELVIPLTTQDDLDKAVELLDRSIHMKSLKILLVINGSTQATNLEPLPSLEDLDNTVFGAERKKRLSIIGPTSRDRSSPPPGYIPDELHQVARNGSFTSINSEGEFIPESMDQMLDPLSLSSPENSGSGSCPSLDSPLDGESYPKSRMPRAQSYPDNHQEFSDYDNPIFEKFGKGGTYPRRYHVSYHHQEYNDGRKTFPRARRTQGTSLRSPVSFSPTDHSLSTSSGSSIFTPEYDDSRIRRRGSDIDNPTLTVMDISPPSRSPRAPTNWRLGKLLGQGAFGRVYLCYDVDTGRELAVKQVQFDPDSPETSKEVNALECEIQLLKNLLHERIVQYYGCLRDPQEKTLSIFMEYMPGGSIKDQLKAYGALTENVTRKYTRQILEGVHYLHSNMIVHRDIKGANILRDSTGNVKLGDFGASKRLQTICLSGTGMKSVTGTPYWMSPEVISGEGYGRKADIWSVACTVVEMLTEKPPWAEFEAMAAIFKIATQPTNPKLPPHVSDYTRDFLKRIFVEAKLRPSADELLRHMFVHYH
How it was run: as §1

PDGFRa = target: T6, PDGFRa (Homo sapiens, UniProt P16234)
T6 construct: purchased Reaction Biology Corp
T6 sequence (P16234 24-1089): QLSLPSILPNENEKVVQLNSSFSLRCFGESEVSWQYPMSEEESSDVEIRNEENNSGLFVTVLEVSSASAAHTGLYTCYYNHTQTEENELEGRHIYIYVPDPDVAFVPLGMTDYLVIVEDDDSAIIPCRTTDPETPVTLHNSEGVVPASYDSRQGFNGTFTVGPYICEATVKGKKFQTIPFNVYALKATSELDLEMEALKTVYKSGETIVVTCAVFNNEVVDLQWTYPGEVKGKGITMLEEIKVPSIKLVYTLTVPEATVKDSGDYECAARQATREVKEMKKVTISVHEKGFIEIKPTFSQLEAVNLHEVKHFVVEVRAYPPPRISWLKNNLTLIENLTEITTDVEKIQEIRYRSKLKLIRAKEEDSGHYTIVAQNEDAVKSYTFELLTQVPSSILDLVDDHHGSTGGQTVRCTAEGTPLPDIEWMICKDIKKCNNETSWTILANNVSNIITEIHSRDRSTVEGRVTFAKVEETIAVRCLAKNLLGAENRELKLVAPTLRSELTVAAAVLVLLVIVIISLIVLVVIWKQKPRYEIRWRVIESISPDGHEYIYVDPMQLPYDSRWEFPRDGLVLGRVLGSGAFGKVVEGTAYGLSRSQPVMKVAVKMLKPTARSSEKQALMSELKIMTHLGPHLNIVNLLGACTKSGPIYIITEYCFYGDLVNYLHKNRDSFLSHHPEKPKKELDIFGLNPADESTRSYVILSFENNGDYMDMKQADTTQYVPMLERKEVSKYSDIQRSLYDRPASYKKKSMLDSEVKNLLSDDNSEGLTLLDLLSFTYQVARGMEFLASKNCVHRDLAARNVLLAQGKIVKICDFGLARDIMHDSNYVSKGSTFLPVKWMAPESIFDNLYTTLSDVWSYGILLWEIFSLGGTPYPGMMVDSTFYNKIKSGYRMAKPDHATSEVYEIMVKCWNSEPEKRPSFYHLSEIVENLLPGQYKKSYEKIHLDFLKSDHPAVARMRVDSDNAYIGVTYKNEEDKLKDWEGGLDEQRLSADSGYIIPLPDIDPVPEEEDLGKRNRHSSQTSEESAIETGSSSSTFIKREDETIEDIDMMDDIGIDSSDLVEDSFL
How it was run: as §1

RET = target: T7, RET (Homo sapiens, UniProt P07949)
T7 construct: purchased Reaction Biology Corp
T7 sequence (P07949 29-1114): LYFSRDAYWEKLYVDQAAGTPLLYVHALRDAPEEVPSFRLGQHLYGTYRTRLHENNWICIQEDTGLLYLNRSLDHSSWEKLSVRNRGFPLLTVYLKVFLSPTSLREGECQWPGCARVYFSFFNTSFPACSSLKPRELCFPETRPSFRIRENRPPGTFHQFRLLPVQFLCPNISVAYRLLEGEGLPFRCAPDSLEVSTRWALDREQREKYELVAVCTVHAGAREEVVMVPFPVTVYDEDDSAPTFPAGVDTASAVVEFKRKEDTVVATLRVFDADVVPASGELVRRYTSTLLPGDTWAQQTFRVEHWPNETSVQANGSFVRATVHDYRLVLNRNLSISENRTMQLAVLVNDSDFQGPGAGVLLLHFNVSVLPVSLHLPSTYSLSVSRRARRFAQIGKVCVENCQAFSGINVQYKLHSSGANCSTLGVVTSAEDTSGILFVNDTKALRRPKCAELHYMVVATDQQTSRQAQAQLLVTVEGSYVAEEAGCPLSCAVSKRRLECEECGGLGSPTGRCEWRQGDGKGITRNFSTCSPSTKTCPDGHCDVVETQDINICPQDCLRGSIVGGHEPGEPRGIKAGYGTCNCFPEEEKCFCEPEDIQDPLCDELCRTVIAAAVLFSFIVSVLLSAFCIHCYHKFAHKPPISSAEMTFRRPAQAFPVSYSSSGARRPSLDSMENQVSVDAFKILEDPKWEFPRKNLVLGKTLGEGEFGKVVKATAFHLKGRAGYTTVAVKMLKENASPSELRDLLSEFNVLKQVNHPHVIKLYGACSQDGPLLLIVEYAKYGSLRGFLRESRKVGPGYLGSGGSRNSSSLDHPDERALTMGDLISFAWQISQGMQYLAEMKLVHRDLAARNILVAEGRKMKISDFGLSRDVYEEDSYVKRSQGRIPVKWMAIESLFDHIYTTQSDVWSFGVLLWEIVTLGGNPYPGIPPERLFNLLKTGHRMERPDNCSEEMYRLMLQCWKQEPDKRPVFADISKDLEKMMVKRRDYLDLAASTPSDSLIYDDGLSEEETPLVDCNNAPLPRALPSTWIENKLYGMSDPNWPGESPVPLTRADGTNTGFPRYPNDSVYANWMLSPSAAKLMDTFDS
How it was run: as §1

TTBK2 = target: T8, TTBK2 (Homo sapiens, UniProt Q6IQ55)
T8 construct: purchased Reaction Biology Corp
T8 sequence (Q6IQ55 whole entry): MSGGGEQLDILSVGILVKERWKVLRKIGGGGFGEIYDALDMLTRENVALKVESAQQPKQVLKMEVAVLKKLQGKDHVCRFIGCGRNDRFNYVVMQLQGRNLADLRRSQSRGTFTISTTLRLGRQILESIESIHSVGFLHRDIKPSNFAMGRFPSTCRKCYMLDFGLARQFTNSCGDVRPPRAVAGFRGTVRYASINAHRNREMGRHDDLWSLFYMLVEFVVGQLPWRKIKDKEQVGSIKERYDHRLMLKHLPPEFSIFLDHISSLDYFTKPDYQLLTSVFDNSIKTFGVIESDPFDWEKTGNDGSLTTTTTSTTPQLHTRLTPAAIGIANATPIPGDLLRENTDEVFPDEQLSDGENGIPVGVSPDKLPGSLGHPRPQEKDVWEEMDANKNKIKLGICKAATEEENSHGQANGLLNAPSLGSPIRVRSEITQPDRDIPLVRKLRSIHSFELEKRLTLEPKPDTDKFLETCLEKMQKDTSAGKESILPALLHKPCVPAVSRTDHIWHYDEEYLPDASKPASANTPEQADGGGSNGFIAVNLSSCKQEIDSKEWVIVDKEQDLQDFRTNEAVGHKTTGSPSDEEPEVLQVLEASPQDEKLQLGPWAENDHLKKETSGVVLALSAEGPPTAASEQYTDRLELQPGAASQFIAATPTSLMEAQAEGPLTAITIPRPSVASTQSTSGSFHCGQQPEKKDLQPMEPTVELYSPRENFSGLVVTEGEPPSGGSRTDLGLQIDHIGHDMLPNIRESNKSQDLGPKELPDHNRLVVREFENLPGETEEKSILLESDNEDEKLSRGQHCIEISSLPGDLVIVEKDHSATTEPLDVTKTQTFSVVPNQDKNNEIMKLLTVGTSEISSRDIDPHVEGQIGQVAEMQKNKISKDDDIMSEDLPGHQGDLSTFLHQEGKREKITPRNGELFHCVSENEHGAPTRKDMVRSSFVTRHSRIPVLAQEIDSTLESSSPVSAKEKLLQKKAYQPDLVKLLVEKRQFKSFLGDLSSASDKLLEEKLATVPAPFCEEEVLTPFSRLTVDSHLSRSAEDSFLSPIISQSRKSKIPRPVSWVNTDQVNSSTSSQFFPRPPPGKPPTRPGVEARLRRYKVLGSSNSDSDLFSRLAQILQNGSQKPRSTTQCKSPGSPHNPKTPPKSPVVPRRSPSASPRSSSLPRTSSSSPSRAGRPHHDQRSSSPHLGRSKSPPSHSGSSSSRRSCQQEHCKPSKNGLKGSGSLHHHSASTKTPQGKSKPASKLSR
How it was run: as §1

TXK = target: T9, TXK (Homo sapiens, UniProt P42681)
T9 construct: purchased Reaction Biology Corp
T9 sequence (P42681 1-527): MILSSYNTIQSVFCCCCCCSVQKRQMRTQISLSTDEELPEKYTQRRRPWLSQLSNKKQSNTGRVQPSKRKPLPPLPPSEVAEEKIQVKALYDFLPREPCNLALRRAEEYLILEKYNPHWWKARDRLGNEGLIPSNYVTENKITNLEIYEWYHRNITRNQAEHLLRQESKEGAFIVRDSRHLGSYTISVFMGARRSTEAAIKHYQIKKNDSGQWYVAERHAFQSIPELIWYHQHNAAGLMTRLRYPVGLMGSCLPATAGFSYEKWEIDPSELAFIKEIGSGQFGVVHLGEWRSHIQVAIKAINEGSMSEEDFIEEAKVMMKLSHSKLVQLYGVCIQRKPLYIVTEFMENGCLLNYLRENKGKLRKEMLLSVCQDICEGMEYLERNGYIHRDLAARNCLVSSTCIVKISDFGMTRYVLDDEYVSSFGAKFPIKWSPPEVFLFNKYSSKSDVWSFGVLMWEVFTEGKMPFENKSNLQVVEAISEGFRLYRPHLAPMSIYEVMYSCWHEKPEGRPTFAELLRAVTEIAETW
How it was run: as §1

[1] = read-out: % Enzyme Activity (relative to DMSO controls) AVG
[2] = read-out: % Enzyme Activity (relative to DMSO controls) Data 1
[3] = read-out: % Enzyme Activity (relative to DMSO controls) Data 2

T1 sequence (P36894 24-532): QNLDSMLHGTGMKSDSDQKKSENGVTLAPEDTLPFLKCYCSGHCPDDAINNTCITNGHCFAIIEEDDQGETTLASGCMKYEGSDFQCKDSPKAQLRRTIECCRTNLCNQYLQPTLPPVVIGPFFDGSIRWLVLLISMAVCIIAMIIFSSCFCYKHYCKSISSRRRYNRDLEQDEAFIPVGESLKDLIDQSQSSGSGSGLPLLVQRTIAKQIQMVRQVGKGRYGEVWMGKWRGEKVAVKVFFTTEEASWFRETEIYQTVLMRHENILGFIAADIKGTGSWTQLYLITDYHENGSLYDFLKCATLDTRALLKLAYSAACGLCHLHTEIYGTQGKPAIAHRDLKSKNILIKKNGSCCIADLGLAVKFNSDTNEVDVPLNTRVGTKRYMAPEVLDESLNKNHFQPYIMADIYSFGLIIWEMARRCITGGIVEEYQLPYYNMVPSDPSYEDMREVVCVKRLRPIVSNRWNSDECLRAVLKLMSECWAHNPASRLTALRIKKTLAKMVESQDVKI

**Q.** For `CC(C)(C)C(=O)N1N=CC[C@H]1c1ccccc1` [GSK′963], which remaining activity at 10 µM (ALK3/BMPR1A; [1]) is on record?
**A.** 101%

**Q.** What about the remaining activity at 10 µM (ALK3/BMPR1A; [2]) of the same compound?
**A.** 103%

**Q.** And the remaining activity at 10 µM (ALK3/BMPR1A; [3])?
**A.** 99.8%

**Q.** And the remaining activity at 10 µM (CDK5/p35; [1])?
**A.** 96.2%

**Q.** And the remaining activity at 10 µM (CDK5/p35; [2])?
**A.** 95.5%

**Q.** And the remaining activity at 10 µM (CDK5/p35; [3])?
**A.** 97%

**Q.** What about the remaining activity at 10 µM (DYRK3; [1]) of the same compound?
**A.** 115%

**Q.** And the remaining activity at 10 µM (DYRK3; [2])?
**A.** 113%

**Q.** What about the remaining activity at 10 µM (DYRK3; [3]) of the same compound?
**A.** 116%

**Q.** What about the remaining activity at 10 µM (HIPK1; [1]) of the same compound?
**A.** 94.3%

**Q.** What about the remaining activity at 10 µM (HIPK1; [2]) of the same compound?
**A.** 95.2%

**Q.** What about the remaining activity at 10 µM (HIPK1; [3]) of the same compound?
**A.** 93.3%

**Q.** And the remaining activity at 10 µM (MEKK2; [1])?
**A.** 114%

**Q.** And the remaining activity at 10 µM (MEKK2; [2])?
**A.** 114%

**Q.** What about the remaining activity at 10 µM (MEKK2; [3]) of the same compound?
**A.** 115%

**Q.** What about the remaining activity at 10 µM (PDGFRa; [1]) of the same compound?
**A.** 104%

**Q.** What about the remaining activity at 10 µM (PDGFRa; [2]) of the same compound?
**A.** 101%

**Q.** What about the remaining activity at 10 µM (PDGFRa; [3]) of the same compound?
**A.** 106%

**Q.** And the remaining activity at 10 µM (RET; [1])?
**A.** 108%

**Q.** And the remaining activity at 10 µM (RET; [2])?
**A.** 107%

**Q.** And the remaining activity at 10 µM (RET; [3])?
**A.** 108%

**Q.** And the remaining activity at 10 µM (TTBK2; [1])?
**A.** 97.8%

**Q.** What about the remaining activity at 10 µM (TTBK2; [2]) of the same compound?
**A.** 98.5%

**Q.** And the remaining activity at 10 µM (TTBK2; [3])?
**A.** 97.1%

**Q.** And the remaining activity at 10 µM (TXK; [1])?
**A.** 96.3%

**Q.** And the remaining activity at 10 µM (TXK; [2])?
**A.** 95.7%

**Q.** What about the remaining activity at 10 µM (TXK; [3]) of the same compound?
**A.** 96.8%

From article PMC4979471 (Cell Death Discovery, 2015)
